System: Haematococcus pluvialis (Strain 2)
Test: % cell lysis, culture dry weight and % carotenoid by UV method in 230 L reactors, salt treatment (Example 12)
Format: cell-based
Conditions: for Culture Dry Weight in 230L reactors: NaCl 2 ppt (1st 2 ppt column)
Protocol: This test was done side by side in flasks (0.1 L) and in reactors located in a greenhouse operating in conditions: reactor volume of 230 L; Daily PAR of 20 mol m^−2 d^−1; pH (not measured); and paddlewheel speed of 21 RPM. […] The flask cultures were mixed by shaking at 140 rpm and received 300-400 μmol/m^2 s of photosynthetically active radiation (PAR) in 12 hour light cycles and constant supply of 2.5% CO2. The motility of the culture was monitored by visual observation under a microscope. […] Nine 230 L reactors were also seeded with culture from bioreactor #2410 on the same day as the flasks and brought to 2 ppt concentration of salt. Once motility of the cells was reduced to <10% (day 3 of culture for flasks and day 2 for 230 L reactors) the level of salt was elevated to a point between 4-18 ppt and compared to the culture in two reactors remaining at 2 ppt salt. Flasks and 230 L reactors were monitored for percentage of cell lysis via visual observation under a microscope, culture dry weight (biomass accumulation in g/L), and percentage of chytrid infection via visual observation under a microscope. Carotenoid production, a proxy for determining astaxanthin, was quantified every other day of culture in the 230 L reactors using the UV method.

## [Cl-].[Na+] [NaCl, sodium chloride]
4 ppt, 2 d
  % Cell Lysis in 230L reactors: 1.67%
4 ppt, 3 d
  % Cell Lysis in 230L reactors: 0.00%
4 ppt, 4 d
  % Cell Lysis in 230L reactors: 0.00%
4 ppt, 5 d
  % Cell Lysis in 230L reactors: 3.33%
4 ppt, 6 d
  % Cell Lysis in 230L reactors: 0.00%
4 ppt, 7 d
  % Cell Lysis in 230L reactors: 30.00%
4 ppt, 8 d
  % Cell Lysis in 230L reactors: 23.33%
4 ppt, 9 d
  % Cell Lysis in 230L reactors: 13.33%
4 ppt, 10 d
  % Cell Lysis in 230L reactors: 11.67%
4 ppt, 11 d
  % Cell Lysis in 230L reactors: 5.00%
4 ppt, 12 d
  % Cell Lysis in 230L reactors: 6.67%
5 ppt, 2 d
  % Cell Lysis in 230L reactors: 3.18%
5 ppt, 3 d
  % Cell Lysis in 230L reactors: 5.00%
5 ppt, 4 d
  % Cell Lysis in 230L reactors: 3.33%
5 ppt, 5 d
  % Cell Lysis in 230L reactors: 1.67%
5 ppt, 6 d
  % Cell Lysis in 230L reactors: 21.67%
5 ppt, 7 d
  % Cell Lysis in 230L reactors: 10.00%
5 ppt, 8 d
  % Cell Lysis in 230L reactors: 1.67%
5 ppt, 9 d
  % Cell Lysis in 230L reactors: 5.00%
5 ppt, 10 d
  % Cell Lysis in 230L reactors: 5.00%
5 ppt, 11 d
  % Cell Lysis in 230L reactors: 8.33%
5 ppt, 12 d
  % Cell Lysis in 230L reactors: 3.33%
6 ppt, 2 d
  % Cell Lysis in 230L reactors: 0.00%
6 ppt, 3 d
  % Cell Lysis in 230L reactors: 0.00%
6 ppt, 4 d
  % Cell Lysis in 230L reactors: 8.33%
6 ppt, 5 d
  % Cell Lysis in 230L reactors: 0.00%
6 ppt, 6 d
  % Cell Lysis in 230L reactors: 13.33%
6 ppt, 7 d
  % Cell Lysis in 230L reactors: 18.33%
6 ppt, 8 d
  % Cell Lysis in 230L reactors: 1.67%
6 ppt, 9 d
  % Cell Lysis in 230L reactors: 6.67%
6 ppt, 10 d
  % Cell Lysis in 230L reactors: 1.67%
6 ppt, 11 d
  % Cell Lysis in 230L reactors: 6.67%
6 ppt, 12 d
  % Cell Lysis in 230L reactors: 5.00%
7 ppt, 2 d
  % Cell Lysis in 230L reactors: 0.00%
7 ppt, 3 d
  % Cell Lysis in 230L reactors: 0.00%
7 ppt, 4 d
  % Cell Lysis in 230L reactors: 3.33%
7 ppt, 5 d
  % Cell Lysis in 230L reactors: 1.67%
7 ppt, 6 d
  % Cell Lysis in 230L reactors: 18.33%
7 ppt, 7 d
  % Cell Lysis in 230L reactors: 8.33%
7 ppt, 8 d
  % Cell Lysis in 230L reactors: 1.67%
7 ppt, 9 d
  % Cell Lysis in 230L reactors: 6.67%
7 ppt, 10 d
  % Cell Lysis in 230L reactors: 6.67%
7 ppt, 11 d
  % Cell Lysis in 230L reactors: 11.67%
7 ppt, 12 d
  % Cell Lysis in 230L reactors: 5.00%
8 ppt, 2 d
  % Cell Lysis in 230L reactors: 3.18%
8 ppt, 3 d
  % Cell Lysis in 230L reactors: 3.33%
8 ppt, 4 d
  % Cell Lysis in 230L reactors: 0.00%
8 ppt, 5 d
  % Cell Lysis in 230L reactors: 3.33%
8 ppt, 6 d
  % Cell Lysis in 230L reactors: 16.67%
8 ppt, 7 d
  % Cell Lysis in 230L reactors: 5.00%
8 ppt, 8 d
  % Cell Lysis in 230L reactors: 0.00%
8 ppt, 9 d
  % Cell Lysis in 230L reactors: 6.67%
8 ppt, 10 d
  % Cell Lysis in 230L reactors: 15.00%
8 ppt, 11 d
  % Cell Lysis in 230L reactors: 11.67%
8 ppt, 12 d
  % Cell Lysis in 230L reactors: 3.33%
10 ppt, 2 d
  % Cell Lysis in 230L reactors: 0.00%
10 ppt, 3 d
  % Cell Lysis in 230L reactors: 5.00%
10 ppt, 4 d
  % Cell Lysis in 230L reactors: 6.67%
10 ppt, 5 d
  % Cell Lysis in 230L reactors: 36.67%
10 ppt, 6 d
  % Cell Lysis in 230L reactors: 31.67%
10 ppt, 7 d
  % Cell Lysis in 230L reactors: 3.33%
10 ppt, 8 d
  % Cell Lysis in 230L reactors: 0.00%
10 ppt, 9 d
  % Cell Lysis in 230L reactors: 5.00%
10 ppt, 10 d
  % Cell Lysis in 230L reactors: 3.33%
10 ppt, 11 d
  % Cell Lysis in 230L reactors: 6.67%
10 ppt, 12 d
  % Cell Lysis in 230L reactors: 5.00%
18 ppt, 2 d
  % Cell Lysis in 230L reactors: 0.00%
18 ppt, 3 d
  % Cell Lysis in 230L reactors: 3.33%
18 ppt, 4 d
  % Cell Lysis in 230L reactors: 13.33%
18 ppt, 5 d
  % Cell Lysis in 230L reactors: 5.00%
18 ppt, 6 d
  % Cell Lysis in 230L reactors: 26.67%
18 ppt, 7 d
  % Cell Lysis in 230L reactors: 20.00%
18 ppt, 8 d
  % Cell Lysis in 230L reactors: 1.67%
18 ppt, 9 d
  % Cell Lysis in 230L reactors: 8.33%
18 ppt, 10 d
  % Cell Lysis in 230L reactors: 5.00%
18 ppt, 11 d
  % Cell Lysis in 230L reactors: 1.67%
18 ppt, 12 d
  % Cell Lysis in 230L reactors: 3.33%
230 L reactors, all treatments except 10 ppt
  cell lysis: below 30%
Time 0 d
  Culture Dry Weight in 230L reactors: 0.030 g/L
Time 1 d
  Culture Dry Weight in 230L reactors: 0.042 g/L
Time 2 d
  Culture Dry Weight in 230L reactors: 0.065 g/L
Time 4 d
  Culture Dry Weight in 230L reactors: 0.145 g/L
Time 5 d
  Culture Dry Weight in 230L reactors: 0.228 g/L
Time 6 d
  Culture Dry Weight in 230L reactors: 0.173 g/L
Time 7 d
  Culture Dry Weight in 230L reactors: 0.185 g/L
Time 8 d
  Culture Dry Weight in 230L reactors: 0.273 g/L
Time 9 d
  Culture Dry Weight in 230L reactors: 0.145 g/L
Time 10 d
  Culture Dry Weight in 230L reactors: 0.220 g/L
Time 11 d
  Culture Dry Weight in 230L reactors: 0.145 g/L

From patent US20160281050A1, “METHODS FOR TREATING A CULTURE OF HAEMATOCOCCUS PLUVIALIS FOR CONTAMINATION USING SALT AND HYDROGEN PEROXIDE” (HELIAE DEVELOPMENT LLC, priority 2015, published 2016)
